From the supplement of paper PMC13380429

Experiments:
Details in all cases: 72 h
[1] = system: Calu-3; test: relative viability EC50 (midpoint between 100% and the lowest measured viability); higher = less toxic
[2] = system: Vero E6; test: as above
[3] = system: Caco-2; test: as above
[4] = system: U2OS; test: as above
[5] = system: HepG2; test: as above
[6] = system: Calu-3; test: drug sensitivity score (DSS) for viability; higher = more toxic; extreme values may be limits of the assay
[7] = system: Vero E6; test: as above
[8] = system: Caco-2; test: as above
[9] = system: U2OS; test: as above
[10] = system: HepG2; test: as above
[11] = system: Calu-3; test: cell viability relative to DMSO; higher = less toxic
[12] = system: Vero E6; test: as above
[13] = system: Caco-2; test: as above
[14] = system: U2OS; test: as above
[15] = system: HepG2; test: as above

SMILES: CCc1nn(CCO)c(CC)c1Oc1cc(C#N)cc(C#N)c1 [lersivirine]
- relative viability EC50 [1]: > 10 µM
- relative viability EC50 [2]: > 10 µM
- relative viability EC50 [3]: > 10 µM
- relative viability EC50 [4]: > 10 µM
- relative viability EC50 [5]: > 10 µM
- drug sensitivity score [6]: 0
- drug sensitivity score [7]: 0
- drug sensitivity score [8]: 0
- drug sensitivity score [9]: 0
- drug sensitivity score [10]: 0
- cell viability ([11]; 1 nM): 102%
- cell viability ([11]; 10 nM): 99.4%
- cell viability ([11]; 100 nM): 107%
- cell viability ([11]; 1000 nM): 114%
- cell viability ([11]; 10000 nM): 104%
- cell viability ([12]; 1 nM): 96.8%
- cell viability ([12]; 10 nM): 95.6%
- cell viability ([12]; 100 nM): 97.5%
- cell viability ([12]; 1000 nM): 90.8%
- cell viability ([12]; 10000 nM): 100%
- cell viability ([13]; 1 nM): 109%
- cell viability ([13]; 10 nM): 95.8%
- cell viability ([13]; 100 nM): 97.9%
- cell viability ([13]; 1000 nM): 98.8%
- cell viability ([13]; 10000 nM): 105%
- cell viability ([14]; 1 nM): 100%
- cell viability ([14]; 10 nM): 97.6%
- cell viability ([14]; 100 nM): 95.7%
- cell viability ([14]; 1000 nM): 102%
- cell viability ([14]; 10000 nM): 102%
- cell viability ([15]; 1 nM): 92.1%
- cell viability ([15]; 10 nM): 110%
- cell viability ([15]; 100 nM): 94.7%
- cell viability ([15]; 1000 nM): 95.9%
- cell viability ([15]; 10000 nM): 105%

SMILES: c1ccc2c(c1)Sc1ccccc1N2C[C@H]1CN2CCC1CC2 [levomequitazine]
- relative viability EC50 [1]: > 10 µM
- relative viability EC50 [2]: > 10 µM
- relative viability EC50 [3]: > 10 µM
- relative viability EC50 [4]: > 10 µM
- relative viability EC50 [5]: > 10 µM
- drug sensitivity score [6]: 0
- drug sensitivity score [7]: 0
- drug sensitivity score [8]: 0.3
- drug sensitivity score [9]: 0
- drug sensitivity score [10]: 0.2
- cell viability ([11]; 1 nM): 105%
- cell viability ([11]; 10 nM): 104%
- cell viability ([11]; 100 nM): 102%
- cell viability ([11]; 1000 nM): 108%
- cell viability ([11]; 10000 nM): 86.3%
- cell viability ([12]; 1 nM): 115%
- cell viability ([12]; 10 nM): 98.2%
- cell viability ([12]; 100 nM): 99.3%
- cell viability ([12]; 1000 nM): 98.6%
- cell viability ([12]; 10000 nM): 93.5%
- cell viability ([13]; 1 nM): 99.6%
- cell viability ([13]; 10 nM): 106%
- cell viability ([13]; 100 nM): 106%
- cell viability ([13]; 1000 nM): 105%
- cell viability ([13]; 10000 nM): 82.6%
- cell viability ([14]; 1 nM): 97.6%
- cell viability ([14]; 10 nM): 102%
- cell viability ([14]; 100 nM): 97.8%
- cell viability ([14]; 1000 nM): 101%
- cell viability ([14]; 10000 nM): 90.4%
- cell viability ([15]; 1 nM): 104%
- cell viability ([15]; 10 nM): 97.7%
- cell viability ([15]; 100 nM): 97.9%
- cell viability ([15]; 1000 nM): 98.2%
- cell viability ([15]; 10000 nM): 86.9%

SMILES: COc1cccc(N(C)C(=S)Oc2ccc3c(c2)CCCC3)n1 [liranaftate]
- relative viability EC50 [1]: > 10 µM
- relative viability EC50 [2]: > 10 µM
- relative viability EC50 [3]: > 10 µM
- relative viability EC50 [4]: > 10 µM
- relative viability EC50 [5]: > 10 µM
- drug sensitivity score [6]: 0
- drug sensitivity score [7]: 0
- drug sensitivity score [8]: 0
- drug sensitivity score [9]: 0
- drug sensitivity score [10]: 0
- cell viability ([11]; 1 nM): 96.9%
- cell viability ([11]; 10 nM): 98.4%
- cell viability ([11]; 100 nM): 102%
- cell viability ([11]; 1000 nM): 105%
- cell viability ([11]; 10000 nM): 97.6%
- cell viability ([12]; 1 nM): 97.2%
- cell viability ([12]; 10 nM): 99.4%
- cell viability ([12]; 100 nM): 99.6%
- cell viability ([12]; 1000 nM): 95.2%
- cell viability ([12]; 10000 nM): 99.3%
- cell viability ([13]; 1 nM): 97.4%
- cell viability ([13]; 10 nM): 97.7%
- cell viability ([13]; 100 nM): 96.2%
- cell viability ([13]; 1000 nM): 109%
- cell viability ([13]; 10000 nM): 97.5%
- cell viability ([14]; 1 nM): 97.2%
- cell viability ([14]; 10 nM): 98.3%
- cell viability ([14]; 100 nM): 95.5%
- cell viability ([14]; 1000 nM): 96.6%
- cell viability ([14]; 10000 nM): 95.8%
- cell viability ([15]; 1 nM): 105%
- cell viability ([15]; 10 nM): 97.7%
- cell viability ([15]; 100 nM): 101%
- cell viability ([15]; 1000 nM): 100%
- cell viability ([15]; 10000 nM): 110%

SMILES: Cl/C(=C\n1cncn1)c1ccc(Cl)cc1Cl [loreclezole]
- relative viability EC50 [1]: > 10 µM
- relative viability EC50 [2]: > 10 µM
- relative viability EC50 [3]: > 10 µM
- relative viability EC50 [4]: > 10 µM
- relative viability EC50 [5]: > 10 µM
- drug sensitivity score [6]: 0
- drug sensitivity score [7]: 0
- drug sensitivity score [8]: 0
- drug sensitivity score [9]: 0
- drug sensitivity score [10]: 0.5
- cell viability ([11]; 1 nM): 100%
- cell viability ([11]; 10 nM): 94.7%
- cell viability ([11]; 100 nM): 105%
- cell viability ([11]; 1000 nM): 113%
- cell viability ([11]; 10000 nM): 97.6%
- cell viability ([12]; 1 nM): 101%
- cell viability ([12]; 10 nM): 102%
- cell viability ([12]; 100 nM): 98.8%
- cell viability ([12]; 1000 nM): 101%
- cell viability ([12]; 10000 nM): 96.2%
- cell viability ([13]; 1 nM): 91.1%
- cell viability ([13]; 10 nM): 92.8%
- cell viability ([13]; 100 nM): 94.6%
- cell viability ([13]; 1000 nM): 95%
- cell viability ([13]; 10000 nM): 104%
- cell viability ([14]; 1 nM): 95.9%
- cell viability ([14]; 10 nM): 100%
- cell viability ([14]; 100 nM): 96%
- cell viability ([14]; 1000 nM): 99.7%
- cell viability ([14]; 10000 nM): 108%
- cell viability ([15]; 1 nM): 96.5%
- cell viability ([15]; 10 nM): 98.9%
- cell viability ([15]; 100 nM): 104%
- cell viability ([15]; 1000 nM): 90%
- cell viability ([15]; 10000 nM): 87.7%

SMILES: CC(C)c1ccc2c(c1)CC[C@H]1[C@](C)(CN)CCC[C@]21C [lylamine]
- relative viability EC50 [1]: 3.37 µM
- relative viability EC50 [2]: 3.01 µM
- relative viability EC50 [3]: 3.03 µM
- relative viability EC50 [4]: 2.9 µM
- relative viability EC50 [5]: 3.64 µM
- drug sensitivity score [6]: 5.2
- drug sensitivity score [7]: 5.7
- drug sensitivity score [8]: 4.8
- drug sensitivity score [9]: 4.9
- drug sensitivity score [10]: 4.9
- cell viability ([11]; 1 nM): 96%
- cell viability ([11]; 10 nM): 98%
- cell viability ([11]; 100 nM): 97.8%
- cell viability ([11]; 1000 nM): 104%
- cell viability ([11]; 10000 nM): 1.4%
- cell viability ([12]; 1 nM): 108%
- cell viability ([12]; 10 nM): 108%
- cell viability ([12]; 100 nM): 105%
- cell viability ([12]; 1000 nM): 97.8%
- cell viability ([12]; 10000 nM): 3.1%
- cell viability ([13]; 1 nM): 109%
- cell viability ([13]; 10 nM): 103%
- cell viability ([13]; 100 nM): 106%
- cell viability ([13]; 1000 nM): 98.4%
- cell viability ([13]; 10000 nM): 16.7%
- cell viability ([14]; 1 nM): 103%
- cell viability ([14]; 10 nM): 98.5%
- cell viability ([14]; 100 nM): 103%
- cell viability ([14]; 1000 nM): 97.1%
- cell viability ([14]; 10000 nM): 19.4%
- cell viability ([15]; 1 nM): 104%
- cell viability ([15]; 10 nM): 109%
- cell viability ([15]; 100 nM): 92.3%
- cell viability ([15]; 1000 nM): 110%
- cell viability ([15]; 10000 nM): 0%

SMILES: Cc1cccc(Nc2ccccc2C(=O)O)c1C [mefenamic-acid]
- relative viability EC50 [1]: > 10 µM
- relative viability EC50 [2]: > 10 µM
- relative viability EC50 [3]: > 10 µM
- relative viability EC50 [4]: > 10 µM
- relative viability EC50 [5]: > 10 µM
- drug sensitivity score [6]: 0
- drug sensitivity score [7]: 0
- drug sensitivity score [8]: 0
- drug sensitivity score [9]: 0
- drug sensitivity score [10]: 0
- cell viability ([11]; 1 nM): 89.9%
- cell viability ([11]; 10 nM): 96.4%
- cell viability ([11]; 100 nM): 97.7%
- cell viability ([11]; 1000 nM): 98.9%
- cell viability ([11]; 10000 nM): 97.6%
- cell viability ([12]; 1 nM): 106%
- cell viability ([12]; 10 nM): 108%
- cell viability ([12]; 100 nM): 100%
- cell viability ([12]; 1000 nM): 104%
- cell viability ([12]; 10000 nM): 92%
- cell viability ([13]; 1 nM): 97.5%
- cell viability ([13]; 10 nM): 101%
- cell viability ([13]; 100 nM): 97.1%
- cell viability ([13]; 1000 nM): 96.4%
- cell viability ([13]; 10000 nM): 99.3%
- cell viability ([14]; 1 nM): 106%
- cell viability ([14]; 10 nM): 97%
- cell viability ([14]; 100 nM): 101%
- cell viability ([14]; 1000 nM): 97.1%
- cell viability ([14]; 10000 nM): 101%
- cell viability ([15]; 1 nM): 101%
- cell viability ([15]; 10 nM): 94.4%
- cell viability ([15]; 100 nM): 100%
- cell viability ([15]; 1000 nM): 97.4%
- cell viability ([15]; 10000 nM): 91.4%
